Experimental findings from US9187455B2, “Substituted pyridazines as PDE10A inhibitors” (Hoffmann-La Roche Inc., priority 2009, dated 2015) are described below.

The term IC50 denotes the concentration needed to halve the response being measured.

The target of the assay is T1, PDE10A2 (Homo sapiens, UniProt Q9Y233).
T1 construct: residues serine 449 to aspartate 789; His6 (H6) with Gateway linker and thrombin cleavage site (N, cleaved yes); made in house; host or cells: E. coli BL21(DE3) pLysS
T1 sequence (Q9Y233 715-1055): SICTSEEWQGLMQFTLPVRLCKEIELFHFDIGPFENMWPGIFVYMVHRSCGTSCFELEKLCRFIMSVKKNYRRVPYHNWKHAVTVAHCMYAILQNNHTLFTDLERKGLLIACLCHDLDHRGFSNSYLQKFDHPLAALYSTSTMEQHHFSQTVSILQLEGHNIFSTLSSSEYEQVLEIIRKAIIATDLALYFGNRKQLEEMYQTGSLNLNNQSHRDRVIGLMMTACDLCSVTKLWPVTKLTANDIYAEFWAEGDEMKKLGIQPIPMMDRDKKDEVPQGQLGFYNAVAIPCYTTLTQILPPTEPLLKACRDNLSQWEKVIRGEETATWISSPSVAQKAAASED
Put plainly: PDE10A2 Scintillation Proximity Assay (SPA), [3H]-cGMP hydrolysis. The assay is classed as biochemical. To be noted: catalytic domain of human PDE10A2 (S449-D789), 0.25 nM enzyme, 50 nM cGMP + 50 nM [3H]-cGMP, 30 minutes at room temperature; read-out: PDE10A2 inhibition IC50. Here is the method:
The following tests were carried out in order to determine the activity of the compounds of the present invention. PDE10 activity of the compounds of the present invention is determined using a Scintillation Proximity Assay (SPA)-based method similar to the one previously described (Fawcett, L. et al., ProcNatl Acad Sci USA (2000) 97(7):3702-3707).
PDE10A1 and PDE10A2 are two splice variants of PDE10A. There are these 2 splice variants known, which differ in the N-terminal part of the protein. The catalytic domains of PDE10A1 and PDE10A2 are identical. The assay for PDE10A2 described below is therefore also representative for PDE10A1 and also for PDE10A in general.
The PDE10A2 assay was performed in a two step procedure in 96-well micro titer plates. The reaction mixture of 80 μl contained 20 mM HEPES/10 mM MgCl2/[…] (pH 7.5), 50 nM cGMP (Sigma) and 50 nM [^3H]-cGMP (GE Healthcare), 0.25 nM PDE10A2 with or without a specific test compound. A range of concentrations of the potential inhibitor was used to generate data for calculating the concentration of inhibitor resulting in 50% of the effect (e.g. IC50, the concentration of the competitor inhibiting PDE10A2 activity 50%). Non-specific activity was tested without the enzyme. The reaction was initiated by addition of the substrate solution (cGMP and [^3H]-cGMP) and allowed to progress for 30 minutes at room temperature. The reaction was terminated by transferring 50 μl of the reaction mixture into an OptiPlate (Perkin Elmer) containing 25 μl of YSi-SPA scintillation beads (GE Healthcare) in 18 mM zinc sulphate solution (stop reagent). After 1 h under shaking, the plate was centrifuged one minute at 1000 rpm to allow beads to settle. Afterwards, radioactive counts were measured on a Perkin Elmer TopCount Scintillation plate reader.
The catalytic domain of human PDE10A2, residues serine 449 to aspartate 789, was amplified by PCR using cDNA (Origene) and the oligonucleotides 5′-GGGGACAAGTTTGT […]-3′ (with AttB1 recombination site in bold and thrombin protease cleavage site in italics) and 5′-[…]-3′ (with AttB2 recombination site in bold) which conferred Gateway recombination sites. The PCR product was used in a BP recombination reaction with pDONR221 to generate pENTR Thm-PDE10A2(S449-D789) which was DNA sequence verified and then used in an LR recombination reaction with a Gateway modified version of pET11a. The resulting expression vector, placT7.2H6-(gwl)-Thm-PDE10A2(S449-D789) was DNA sequence confirmed and transformed into E. coli strain BL21(DE3) pLysS and recombinant protein was produced in TB medium at 20° C. by induction to a final IPTG concentration of 0.5 mM at an optical density of 1.0 at 600 nm for 20 hours. About 30% of the protein was in the soluble fraction of the cell homogenate. The protein was purified using sequential chromatography on Ni-NTA and HiTrapQ/HiTrapS. After thrombin digest at room temperature a HiTrapChelating/HiTrap Benzamindin chromatography removed impurities, uncleaved protein and thrombin. Final purification of PDE10A2(S449-D789) was performed on a Superdex 75 size exclusion chromatography equilibrated with 25 mM HEPES pH 8.4, 0.15 M NaCl. The yield of pure protein was 2 mg/liter of culture volume is relatively low. The purity of the protein was >95%, monomeric and monodisperse as shown by SDS-PAGE, HPLC and analytical ultracentrifugation.
Background: SPA uses beads or plates that emit light when radiolabelled molecules are held near them.
As for `Cc1cncc(-n2ccc(=O)c(-c3ccnn3-c3cccc(F)c3)n2)c1` [Example 37, 3-[2-(3-Fluoro-phenyl)-2H-pyrazol-3-yl]-1-(5-methyl-pyridin-3-yl)-1H-pyridazin-4-one], the IC50 was 149 nM.
For `Cc1cc(-n2ccc(=O)c(-c3ccnn3-c3ccc4c(c3)OCCO4)n2)ccn1` [Example 38, 3-[2-(2,3-Dihydro-benzo[1,4]dioxin-6-yl)-2H-pyrazol-3-yl]-1-(2-methyl-pyridin-4-yl)-1H-pyridazin-4-one], the IC50 came out at 437 nM.
With `Cc1cc(-n2ccc(=O)c(-c3ccnn3-c3cccc(F)c3)n2)ccn1` [Example 39, 3-[2-(3-Fluoro-phenyl)-2H-pyrazol-3-yl]-1-(2-methyl-pyridin-4-yl)-1H-pyridazin-4-one] the figure was 2560 nM; with `COc1cc(-n2ccc(=O)c(-c3ccnn3-c3cccc(F)c3)n2)ccn1` [Example 40, 3-[2-(3-Fluoro-phenyl)-2H-pyrazol-3-yl]-1-(2-methoxy-pyridin-4-yl)-1H-pyridazin-4-one], 414 nM; with `O=c1ccn(-c2ccnc(N3CCOCC3)c2)nc1-c1ccnn1-c1ccc2c(c1)OCCO2` [Example 41, 3-[2-(2,3-Dihydro-benzo[1,4]dioxin-6-yl)-2H-pyrazol-3-yl]-1-(2-morpholin-4-yl-pyridin-4-yl)-1H-pyridazin-4-one], 82 nM.
In the case of `O=c1ccn(-c2ccnc(N3CCOCC3)c2)nc1-c1ccnn1-c1cccc(F)c1` [Example 42, 3-[2-(3-Fluoro-phenyl)-2H-pyrazol-3-yl]-1-(2-morpholin-4-yl-pyridin-4-yl)-1H-pyridazin-4-one], the IC50 was 1420 nM.
`N#Cc1cc(-n2ccc(=O)c(-c3ccnn3-c3ccc4c(c3)OCCO4)n2)ccn1` [Example 43, 4-{3-[2-(2,3-Dihydro-benzo[1,4]dioxin-6-yl)-2H-pyrazol-3-yl]-4-oxo-4H-pyridazin-1-yl}-pyridine-2-carbonitrile]: the IC50 was 663 nM.
With `N#Cc1cc(-n2ccc(=O)c(-c3ccnn3-c3cccc(F)c3)n2)ccn1` [Example 44, 4-{3-[2-(3-Fluoro-phenyl)-2H-pyrazol-3-yl]-4-oxo-4H-pyridazin-1-yl}-pyridine-2-carbonitrile], the IC50 is 2290 nM.
For the compound `CS(=O)(=O)c1cncc(-n2ccc(=O)c(-c3ccnn3-c3cccc(F)c3)n2)c1` [Example 45, 3-[2-(3-Fluoro-phenyl)-2H-pyrazol-3-yl]-1-(5-methanesulfonyl-pyridin-3-yl)-1H-pyridazin-4-one], the IC50 worked out at 259 nM.
To `O=c1ccn(-c2ccnc(O)c2)nc1-c1ccnn1-c1ccc2c(c1)OCCO2` [Example 46, 3-[2-(2,3-Dihydro-benzo[1,4]dioxin-6-yl)-2H-pyrazol-3-yl]-1-(2-hydroxy-pyridin-4-yl)-1H-pyridazin-4-one] belongs 57 nM; to `O=c1ccn(-c2cccnc2)nc1-c1ccnn1-c1cc(F)ccc1F` [Example 47, 3-[2-(2,5-Difluoro-phenyl)-2H-pyrazol-3-yl]-1-pyridin-3-yl-1H-pyridazin-4-one], 352 nM; to `Cc1cncc(-n2ccc(=O)c(-c3ccnn3-c3ccnc4ccc(F)cc34)n2)c1` [Example 48, 3-[2-(6-Fluoro-quinolin-4-yl)-2H-pyrazol-3-yl]-1-(5-methyl-pyridin-3-yl)-1H-pyridazin-4-one], 25 nM.
With `O=c1ccn(-c2cncc(F)c2)nc1-c1ccnn1-c1ccnc2ccc(F)cc12` [Example 49, 1-(5-Fluoro-pyridin-3-yl)-3-[2-(6-fluoro-quinolin-4-yl)-2H-pyrazol-3-yl]-1H-pyridazin-4-one] the figure was 163 nM; with `O=c1ccn(-c2cccnc2)nc1-c1ccnn1-c1ccnc2ccc(F)cc12` [Example 50, 3-[2-(6-Fluoro-quinolin-4-yl)-2H-pyrazol-3-yl]-1-pyridin-3-yl-1H-pyridazin-4-one], 87 nM; with `O=c1ccn(-c2cncc(Cl)c2)nc1-c1ccnn1-c1ccnc2ccccc12` [Example 51, 1-(5-Chloro-pyridin-3-yl)-3-(2-quinolin-4-yl-2H-pyrazol-3-yl)-1H-pyridazin-4-one], 20 nM.
In the case of `O=c1ccn(-c2cncc(Cl)c2)nc1-c1ccnn1-c1ccnc2ccc(F)cc12` [Example 52, 1-(5-Chloro-pyridin-3-yl)-3-[2-(6-fluoro-quinolin-4-yl)-2H-pyrazol-3-yl]-1H-pyridazin-4-one], the IC50 came out at 177 nM.
With `O=c1ccn(-c2cncc(Cl)c2)nc1-c1ccnn1-c1cccc(Cl)c1` [Example 53, 3-[2-(3-Chloro-phenyl)-2H-pyrazol-3-yl]-1-(5-chloro-pyridin-3-yl)-1H-pyridazin-4-one] the figure was 65 nM; with `O=c1ccn(-c2ccnc(Cl)c2)nc1-c1ccnn1-c1ccnc2ccccc12` [Example 54, 1-(2-Chloro-pyridin-4-yl)-3-(2-quinolin-4-yl-2H-pyrazol-3-yl)-1H-pyridazin-4-one], 66 nM.
With `O=c1ccn(-c2ccnc(Cl)c2)nc1-c1ccnn1-c1ccnc2ccc(F)cc12` [Example 55, 1-(2-Chloro-pyridin-4-yl)-3-[2-(6-fluoro-quinolin-4-yl)-2H-pyrazol-3-yl]-1H-pyridazin-4-one] the figure was 122 nM; with `O=c1ccn(-c2ccnc(Cl)c2)nc1-c1ccnn1-c1cccc(Cl)c1` [Example 56, 3-[2-(3-Chloro-phenyl)-2H-pyrazol-3-yl]-1-(2-chloro-pyridin-4-yl)-1H-pyridazin-4-one], 50 nM; with `O=c1ccn(-c2ccnc(Cl)c2)nc1-c1ccnn1-c1ccnc(Cl)c1` [Example 57, 1-(2-Chloro-pyridin-4-yl)-3-[2-(2-chloro-pyridin-4-yl)-2H-pyrazol-3-yl]-1H-pyridazin-4-one], 1540 nM.
Regarding `O=c1ccn(-c2ccnc(Cl)c2)nc1-c1ccnn1-c1cccc2ncccc12` [Example 58, 1-(2-Chloro-pyridin-4-yl)-3-(2-quinolin-5-yl-2H-pyrazol-3-yl)-1H-pyridazin-4-one], the IC50 was 89 nM.
With `O=c1ccn(-c2ccnc(Cl)c2)nc1-c1ccnn1-c1cccc2cnccc12` [Example 59, 1-(2-Chloro-pyridin-4-yl)-3-(2-isoquinolin-5-yl-2H-pyrazol-3-yl)-1H-pyridazin-4-one] the figure was 220 nM; with `O=c1ccn(-c2cncc(Cl)c2)nc1-c1ccnn1-c1cccc2ncccc12` [Example 60, 1-(5-Chloro-pyridin-3-yl)-3-(2-quinolin-5-yl-2H-pyrazol-3-yl)-1H-pyridazin-4-one], 78 nM.
With `O=c1ccn(-c2cncc(Cl)c2)nc1-c1ccnn1-c1ccnc2ccc(Cl)cc12` [Example 61, 1-(5-Chloro-pyridin-3-yl)-3-[2-(6-chloro-quinolin-4-yl)-2H-pyrazol-3-yl]-1H-pyridazin-4-one] the figure was 220 nM; with `O=c1ccn(-c2ccnc(Cl)c2)nc1-c1ccnn1-c1ccnc2ccc(Cl)cc12` [Example 62, 1-(2-Chloro-pyridin-4-yl)-3-[2-(6-chloro-quinolin-4-yl)-2H-pyrazol-3-yl]-1H-pyridazin-4-one], 154 nM.
To `O=c1ccn(-c2ccnc(Cl)c2)nc1-c1ccnn1-c1ccccc1F` [Example 63, 1-(2-Chloro-pyridin-4-yl)-3-[2-(2-fluoro-phenyl)-2H-pyrazol-3-yl]-1H-pyridazin-4-one] belongs 78 nM; to `O=c1ccn(-c2cncc(Cl)c2)nc1-c1ccnn1-c1ccccc1F` [Example 64, 1-(5-Chloro-pyridin-3-yl)-3-[2-(2-fluoro-phenyl)-2H-pyrazol-3-yl]-1H-pyridazin-4-one], 148 nM.
